Assay results reported in the supplement of paper PMC11616607.

What was measured:
Assay in all cases: drug sensitivity score (DSS) from 5-point dose-response viability curve (DSS (area-under-curve based score)); higher = more sensitive (stronger growth inhibition or killing); extreme values may be limits of the assay
Settings in all cases: exposure time: 72 h; concentration range: 5 concentrations over 10,000-fold range
CAOV3 = tested on: CAOV3
In short: (§1)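 Ovarian cancer and normal ovarian cell lines were tested in 384-well plates, with drugs dispensed acoustically (Echo 550) in DMSO or water at five concentrations covering a 10,000-fold range. After 1,500 cells per well were added, plates were incubated for 3 days at 37°C and 5% CO2, and viability was read by CellTiter-Glo luminescence on a PHERAstar FS. Breeze software gave a drug sensitivity score for each cell line and drug, where a higher score means greater sensitivity. A value of zero means no response.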

COV318 = tested on: COV318
In short: as §1

COV362 = tested on: COV362
In short: as §1

HOSE1C = tested on: HOSE1C
In short: as §1

HOSE2C = tested on: HOSE2C
In short: as §1

JHOS2 = tested on: JHOS2
In short: as §1

Kuramochi = tested on: Kuramochi
In short: as §1

OV90 = tested on: OV90
In short: as §1

OVCAR4 = tested on: OVCAR4
In short: as §1

OVCAR5 = tested on: OVCAR5
In short: as §1

OVCAR8 = tested on: OVCAR8
In short: as §1

Ovsaho = tested on: Ovsaho
In short: as §1

Compound | drug sensitivity score (CAOV3) | drug sensitivity score (COV318) | drug sensitivity score (COV362) | drug sensitivity score (HOSE1C) | drug sensitivity score (HOSE2C) | drug sensitivity score (JHOS2) | drug sensitivity score (Kuramochi) | drug sensitivity score (OV90) | drug sensitivity score (OVCAR4) | drug sensitivity score (OVCAR5) | drug sensitivity score (OVCAR8) | drug sensitivity score (Ovsaho)
O=C(NOC[C@H](O)CO)c1ccc(F)c(F)c1Nc1ccc(I)cc1F | 11.7 | 0 | 2.4 | 0 | 0.4 | 3.2 | 5.2 | 21.6 | 2.1 | 9.7 | 1.7 | 13.5
CCCC(CCC)C(=O)O [Valproic acid] | 0 | 0 | 0 | 0 | 0 | 0 | 0 | 0 | 0 | 0 | 0 | 0
COc1cc2/c(=N/c3ccc(Br)cc3F)nc[nH]c2cc1OCC1CCN(C)CC1 [Vandetanib] | 1.7 | 0.6 | 1.3 | 0 | 0 | 0.6 | 2.9 | 0 | 1.2 | 1.5 | 0 | 4.7
CC(C)C[C@@H](C(=O)N[C@H](C(=O)OC1CCCC1)c1ccccc1)[C@H](O)C(=O)NO [Tosedostat] | 7.4 | 0.4 | 0 | 0 | 2.1 | 15.7 | 0.6 | 12.3 | 7.4 | 8.3 | 6.9 | 5.1
CCC1=C[C@@H]2CN(C1)Cc1c([nH]c3ccccc13)[C@@](C(=O)OC)(c1cc3c(cc1OC)N(C)[C@H]1[C@@](O)(C(=O)OC)[C@H](OC(C)=O)[C@]4(CC)C=CCN5CC[C@]31[C@@H]54)C2 [Vinorelbine] | 16.4 | 8.1 | 8.9 | 30.2 | 32.1 | 9.7 | 12.6 | 26.5 | 12.7 | 19.5 | 27.6 | 19.9
Cc1cc(Nc2ncc(Cl)c(Nc3ccccc3S(=O)(=O)C(C)C)n2)c(OC(C)C)cc1C1CCNCC1 [Ceritinib] | 2.7 | 0.8 | 0 | 0.7 | 2.2 | 0 | 2.1 | 4.9 | 1.5 | 3.8 | 0 | 3.3
O=C(CCCCCCNC(=O)c1cnc(N(c2ccccc2)c2ccccc2)nc1)NO [Rocilinostat] | 5.2 | 2.7 | 0 | 9.3 | 5.7 | 1.6 | 3.3 | 6 | 1.4 | 6.9 | 7.1 | 1.9
N#Cc1ccnc(N2C(=O)CC[C@H]2C(=O)N(c2cncc(F)c2)[C@H](C(=O)NC2CC(F)(F)C2)c2ccccc2Cl)c1 [Ivosidenib] | 0 | 0 | 0 | 0 | 0 | 0 | 0 | 0.3 | 0.1 | 0.6 | 0 | 0
CCN1CCN(c2ccc(Nc3cc(N(C)C(=O)Nc4c(Cl)c(OC)cc(OC)c4Cl)ncn3)cc2)CC1 [Infigratinib] | 0 | 0 | 0 | 0 | 0 | 0 | 0 | 0 | 0 | 0 | 0 | 0
COc1ccc(S(=O)(=O)Nc2cccnc2Nc2ccc(O)cc2)cc1 [ABT-751] | 14.9 | 7.2 | 4.3 | 15.8 | 10.7 | 7.1 | 7.4 | 9.4 | 5 | 10.3 | 11.5 | 7
Cc1cc(Nc2cc(CN3CCOCC3)c3nc(C)c(Cc4ccc(Cl)cc4F)n3n2)n[nH]1 [Gandotinib] | 5.9 | 4.9 | 4.6 | 5.9 | 8.9 | 3.1 | 5.9 | 4.1 | 4 | 5.8 | 7.1 | 6.7
Cc1nc(-c2cn3c(n2)-c2ccc(-c4cnn(C(C)(C)C(N)=O)c4)cc2OCC3)n(C(C)C)n1 [Taselisib] | 7.5 | 2.5 | 1.9 | 4.5 | 7.8 | 3.3 | 4.1 | 0.3 | 2.1 | 7.9 | 2.1 | 3.1
CO[C@@H](C)Cn1c(=O)n(C)c2cnc3ccc(-c4cncc(C(C)(C)O)c4)cc3c21 | 9.2 | 6.8 | 3.8 | 15.1 | 9.9 | 7.8 | 8.3 | 11.9 | 9.8 | 8.7 | 9.5 | 10.9
CN(c1ncccc1CNc1nc(Nc2ccc3c(c2)CC(=O)N3)ncc1C(F)(F)F)S(C)(=O)=O | 7.4 | 1.9 | 3.5 | 4.6 | 3.9 | 5.1 | 5.5 | 5.9 | 4.7 | 6.1 | 4.3 | 5.7
CC(C)c1cc(-c2n[nH]c(=O)n2-c2ccc3c(ccn3C)c2)c(O)cc1O [Ganetespib] | 16.2 | 10.3 | 12.7 | 22.9 | 26.1 | 18 | 11.9 | 15.3 | 11.3 | 13.6 | 17 | 5
COc1cc(Br)c(Nc2nc(-c3c(C)nc4ncccn34)cs2)c(Br)c1 [PTC-209] | 4.1 | 2.1 | 0.6 | 8.1 | 9.6 | 6.2 | 2.7 | 9.8 | 3.1 | 3.5 | 4.5 | 1.3

Compound | drug sensitivity score (CAOV3) | drug sensitivity score (COV318) | drug sensitivity score (COV362) | drug sensitivity score (HOSE1C) | drug sensitivity score (HOSE2C) | drug sensitivity score (JHOS2) | drug sensitivity score (Kuramochi) | drug sensitivity score (OV90) | drug sensitivity score (OVCAR4) | drug sensitivity score (OVCAR5) | drug sensitivity score (OVCAR8) | drug sensitivity score (Ovsaho)
Cc1cnc(-c2ccccc2C(C)C)nc1NCc1ccc(-n2ccnn2)cc1 [ML323] | 0.3 | 0.1 | 0 | 0 | 0 | 0 | 0 | 0.1 | 1.5 | 0 | 0 | 0
NS(=O)(=O)NCCNc1nonc1/C(=N/O)Nc1ccc(F)c(Br)c1 [Epacadostat] | 0 | 1 | 0 | 0 | 0 | 0.9 | 0 | 0.4 | 0 | 0.3 | 0 | 0.1
CCNc1nc(Nc2cc(F)c(C(=O)N3CCOCC3)cc2OC)ncc1C(F)(F)F [GNE-7915] | 0 | 0 | 0 | 0 | 0 | 0 | 0 | 0 | 0 | 0 | 0 | 0
CN1CC[C@H](c2c(O)cc(O)c3c(=O)cc(-c4ccccc4Cl)oc23)[C@H](O)C1 [Alvocidib] | 14.9 | 11.5 | 12.1 | 18.9 | 11.9 | 14 | 16 | 14.7 | 13.3 | 16.7 | 17.8 | 15.9
C=CCN(/C=C1/C(=O)O[C@H](COC)[C@@]2(C)C1=C(O)C(=O)C1=C2[C@H](OC(C)=O)C[C@]2(C)C(=O)CC[C@@H]12)CC=C [Sonolisib] | 0 | 0 | 0 | 0 | 0.6 | 0 | 0 | 0 | 0 | 0 | 0 | 0
CCCCCOC(=O)Nc1nc(=O)n([C@@H]2O[C@H](C)[C@@H](O)[C@H]2O)cc1F [Capecitabine] | 0.2 | 0 | 0 | 0.3 | 0 | 0 | 0 | 0 | 0 | 0.3 | 0 | 0
COc1ccccc1S(=O)(=O)Nc1ccc2c(c1)CN(C)C(=O)N2 [PFI-1] | 7.2 | 3.1 | 3 | 3.1 | 4.3 | 2.6 | 8.7 | 5.5 | 4.4 | 5.7 | 4.8 | 8.2
CNC(=O)c1nn(C)c2c1C(C)(C)Cc1cnc(Nc3ccc(N4CCN(C)CC4)cc3)nc1-2 [Milciclib] | 6.8 | 6.5 | 5.4 | 8.8 | 7.4 | 9.1 | 10.1 | 8.1 | 6.4 | 9.4 | 6.2 | 10.7
Cc1cc(F)c(C(=O)Nc2cccc(-c3nncn3C(C)C)n2)cc1-n1cnc(C2CC2)c1 [Selonsertib] | 0 | 0 | 0 | 0 | 0 | 0 | 0 | 0.1 | 0 | 0 | 0 | 0
CC(C)C[C@H](NC(=O)CNC(=O)c1cc(Cl)ccc1Cl)B(O)O [Ixazomib] | 11.6 | 16.4 | 10.5 | 7.4 | 7.8 | 10.6 | 2.7 | 5.5 | 6.5 | 10.4 | 9 | 7
Nc1cccc2c1C(=O)N(C1CCC(=O)NC1=O)C2=O (configuration not stated) [Pomalidomide] | 0 | 0 | 0 | 0 | 0 | 0 | 0 | 0 | 0 | 0 | 0 | 0
CCCOc1ccn2c(C(C)=O)cc(-c3ccccc3S(C)(=O)=O)c2c1 [GSK2801] | 0 | 0 | 0 | 0 | 0 | 0 | 0.4 | 0 | 0 | 0 | 0 | 0
CN1C(=O)N[C@H](Cc2c[nH]c3c(Cl)cccc23)C1=O [Necrostatin 2] | 0 | 0 | 0 | 0 | 0 | 0 | 0 | 0 | 0 | 0 | 0 | 0
Cn1cc(CNCC2CCN(c3ncc(C(=O)NO)cn3)CC2)c2ccccc21 [Quisinostat] | 11.5 | 4.7 | 4.5 | 22.9 | 19 | 8.1 | 9.2 | 14.6 | 8 | 19.2 | 18.6 | 9
O=C(Nc1ccc2[nH]nc(-c3ccncc3)c2c1)[C@@H]1CCN(CC(=O)N2CCN(c3ccc(-c4ncccn4)cc3)CC2)C1 | 12.2 | 0 | 4.9 | 0.2 | 1.1 | 8.4 | 13.2 | 23.5 | 1.7 | 13.4 | 6.7 | 14.1
